Columns and labels:
d-U937 cells = test: Cell viability: MTT assay; assay type: cell-based, human; details: 1 μg/mL
How it was run: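 Differentiated U937 cells exposed to compound at 1 or 10 μg/mL, either 4 h in 5% FCS or 24 h in 10% FCS RPMI1640. MTT then added for 1 h, formazan dissolved in DMSO and read at 550 nm. Viability loss given as % versus 0.5% DMSO vehicle; apparent gains appear negative.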

GSK3α [1] = target: T1, GSK3α (Homo sapiens, UniProt P49840); test: GSK 3α enzyme inhibition (FRET), Method 1; assay type: biochemical; details: Table 4a1
T1 sequence (P49840 whole entry): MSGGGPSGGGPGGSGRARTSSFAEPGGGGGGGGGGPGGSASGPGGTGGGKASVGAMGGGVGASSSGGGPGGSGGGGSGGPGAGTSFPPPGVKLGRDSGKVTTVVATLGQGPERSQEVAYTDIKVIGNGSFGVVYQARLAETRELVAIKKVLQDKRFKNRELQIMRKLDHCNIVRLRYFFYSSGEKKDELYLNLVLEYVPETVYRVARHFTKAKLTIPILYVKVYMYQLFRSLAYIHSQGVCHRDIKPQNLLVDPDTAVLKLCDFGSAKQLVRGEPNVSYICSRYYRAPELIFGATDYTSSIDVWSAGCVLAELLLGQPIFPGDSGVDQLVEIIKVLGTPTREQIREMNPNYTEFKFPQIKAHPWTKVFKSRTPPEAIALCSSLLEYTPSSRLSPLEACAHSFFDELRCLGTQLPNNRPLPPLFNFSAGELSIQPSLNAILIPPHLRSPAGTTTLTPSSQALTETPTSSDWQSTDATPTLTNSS
How it was run: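 GSK3α was preincubated with test compound for 2 hr at RT, then a FRET peptide substrate and ATP were added for 1 hr. Protease development for 1 hr cleaved only non-phosphorylated peptide, and phosphorylation was read as the coumarin/fluorescein emission ratio. Concentrations given are those of the added solutions: enzyme 500 ng/mL, peptide 8 μM, ATP 40 μM.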

Syk = Syk (Homo sapiens, UniProt P43405); test: Syk enzyme inhibition (FRET); assay type: biochemical
How it was run: (§1)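 Enzyme was preincubated with test compound (added as 4, 0.4, 0.04 or 0.004 μg/mL solutions) for 2 hr at RT. FRET peptide (8 μM solution) and ATP solution (800 μM for c-Src, 60 μM for Syk) were then added for 1 hr, followed by 1 hr protease development.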

[2] = system: IL-8 release, d-U937 cells; test: LPS-induced IL-8 release in d-U937 cells; assay type: cell-based; details: Homo sapiens, dU937; Table 4c1; read-out: LPS Induced Release of Cytokine in d-U937 Cells, IL-8 IC50
How it was run: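 IL-8 release after a 4 hr challenge with LPS (0.1 μg/mL, E. coli 0111:B4) following a 2 hr compound pretreatment. Cells were human U937 monocytes differentiated to macrophage-type with PMA 100 ng/mL for 48–72 hr. Relative 50% effective concentration derived from concentration–response data.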

[3] = system: TNFα release, d-U937 cells; test: LPS-induced TNFα release in d-U937 cells; assay type: cell-based; details: Homo sapiens, dU937; relative to 10 μg/mL BIRB796; Table 4c1; read-out: LPS Induced Release of Cytokine in d-U937 Cells, TNFα REC50
How it was run: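 U937 cells differentiated with PMA (100 ng/mL, 48–72 hr), pre-treated with compound for 2 hr, then stimulated with E. coli LPS (0.1 μg/mL) for 4 hr. Supernatant cytokine measured by sandwich ELISA; inhibition versus vehicle control, REC50 from concentration-response curve.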

HRV16 in MRC5 cells = test: HRV16 induced CPE in MRC5 cells; assay type: cell-based; details: Human rhinovirus sp., HRV-16
Method: (j) Assessment of HRV16 Induced CPE in MRC5 Cells
MRC-5 cells are infected with HRV16 at an MOI of 1n DMEM containing 5% FCS and 1.5 mM magnesium chloride, followed by incubation for 1 hr at 33° C. to promote adsorption. The supernatants are aspirated, and then fresh media added followed by incubation for 4 days. Where appropriate, cells are pre-incubated with compound or DMSO for 2 hr, and the compounds and DMSO added again after washout of the virus.
After washing, 1% SDS in distilled water (100 μL) is added to each well, and the plates are shaken lightly for 1-2 hr prior to reading the absorbance at 660 nm. The percentage inhibition for each well is calculated. The IC50 value is calculated from the concentration-response curve generated by the serial dilutions of the test compounds.

cSrc = cSrc (Homo sapiens, UniProt P12931); test: c-Src enzyme inhibition (FRET); assay type: biochemical
Chain of cSrc (P12931 whole entry): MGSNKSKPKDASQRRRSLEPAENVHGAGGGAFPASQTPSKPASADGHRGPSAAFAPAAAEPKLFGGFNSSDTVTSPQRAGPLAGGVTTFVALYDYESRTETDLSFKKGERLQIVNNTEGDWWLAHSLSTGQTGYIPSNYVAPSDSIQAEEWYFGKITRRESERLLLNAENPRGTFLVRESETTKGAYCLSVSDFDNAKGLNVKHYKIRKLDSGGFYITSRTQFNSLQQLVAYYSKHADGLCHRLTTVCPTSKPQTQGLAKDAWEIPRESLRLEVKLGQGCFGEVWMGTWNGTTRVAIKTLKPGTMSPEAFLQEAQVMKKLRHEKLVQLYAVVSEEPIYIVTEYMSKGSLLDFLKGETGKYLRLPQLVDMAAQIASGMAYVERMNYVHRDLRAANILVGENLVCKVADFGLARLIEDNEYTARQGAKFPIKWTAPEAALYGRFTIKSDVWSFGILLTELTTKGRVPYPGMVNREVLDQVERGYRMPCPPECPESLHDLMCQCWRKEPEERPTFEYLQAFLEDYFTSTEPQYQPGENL
How it was run: as §1

[4] = system: ICAM-1 expression, BEAS2B cells; test: Poly I:C-induced ICAM-1 expression in BEAS2B cells; assay type: cell-based; details: Homo sapiens, BEAS-2B; read-out: Poly IC induced ICAM1 in BEAS2B, IC50
How it was run: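 BEAS2B human bronchial epithelial cells pre-incubated 2 h with compound, then transfected with poly I:C (1 μg/mL) plus Oligofectamine. After 18 h, cell-surface ICAM-1 read by cell-based ELISA (A450–655), normalised to Crystal Violet cell number (A595); inhibition calculated against vehicle control at each concentration.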

IL-2 release, PBMCs = test: IL-2 release in CD3/CD28 stimulated PBMC cells; assay type: cell-based; details: Homo sapiens, read-out: IC50 Values for Inhibition of Cytokine Release, PBMCs, IL-2
Method: (§2) (c) IL-2 and IFN Gamma Release in CD3/CD28 Stimulated PBMC Cells
(§3) PBMCs from healthy subjects are separated from whole blood using a density gradient (Lymphoprep, Axis-Shield Healthcare). Cells are added to a 96 well plate pre-coated with a mixture of […] monoclonal antibodies (0.3 ug/ml eBioscience and 3 ug/ml BD Pharmingen respectively). Compound at the desired concentration is then added to the wells and the plate left for 3 days under normal tissue culture conditions. Supernatants are harvested and IL-2 and IFN gamma release determined by Sandwich ELISA (Duo-set, R&D System). The IC50 is determined from the dose response curve.

PBMC cells = test: Cell mitosis assay; assay type: cell-based; details: Homo sapiens, read-out: % Inhibition of mitosis in PBMC cells at 5 μg/mL
Method: PBMCs from healthy subjects are separated from whole blood (Quintiles, London, UK) using a density gradient (Histopaque®-1077, Sigma-Aldrich, Poole, UK). The PBMCs (3 million cells per sample) are subsequently treated with 2% PHA (Sigma-Aldrich, Poole, UK) for 48 hr, followed by a 20 hr exposure to varying concentrations of test compounds. At 2 hr before collection, PBMCs are treated with demecolcine (0.1 μg/mL; Invitrogen, Paisley, UK) to arrest cells in metaphase. […] Fluorescence is observed using an ATTUNE flow cytometer (Invitrogen, Paisley, UK), gating for lymphocytes.

GSK3α [5] = target: T1, GSK3α; test: GSK 3α enzyme inhibition (FRET), Method 2; assay type: biochemical; details: Table 4a2, different laboratory
IL-8 release, PBMCs = test: LPS-induced IL-8 release in PBMC cells; assay type: cell-based; details: Homo sapiens, LPS stimulated, read-out: IC50 Values for Inhibition of Cytokine Release, PBMCs, IL-8
Method: (b) LPS-Induced TNFα/IL-8 Release in PBMC Cells
Peripheral blood mononuclear cells (PBMCs) from healthy subjects are separated from whole blood using a density gradient (Lymphoprep, Axis-Shield Healthcare). The PBMCs are seeded in 96 well plates and treated with compounds at the desired concentration for 2 hours before addition of 1 ng/ml LPS (Escherichia Coli 0111:B4 from Sigma Aldrich) for 24 hours under normal tissue culture conditions (37° C., 5% CO2). The supernatant is harvested for determination of […] concentrations by sandwich ELISA (Duo-set, R&D systems) and read on the fluorescence microplate reader (Varioskan® Flash, ThermoFisher Scientific).

IFN gamma release, PBMCs = test: IFN gamma release in CD3/CD28 stimulated PBMC cells; assay type: cell-based; details: Homo sapiens, read-out: IC50 Values for Inhibition of Cytokine Release, PBMCs, IFNγ
Method: as §2, §3

[6] = Table 4a2, different laboratory

Row | SMILES | IC50 (GSK3α [1]) | IC50 (Syk; Table 4a1) | IC50 [2] | EC50 [3] | IC50 (cSrc; Table 4a1) | IC50 (Syk; [6]) | IC50 (GSK3α [5]) | IC50 (cSrc; [6]) | Cell viability at time point in d-U937 cells, 4 h (d-U937 cells) | Cell viability at time point in d-U937 cells, 24 h (d-U937 cells) | IC50 (HRV16 in MRC5 cells) | IC50 [4] | IC50 (IL-2 release, PBMCs) | inhibition at 5 µg/mL (PBMC cells) | IC50 (IL-8 release, PBMCs) | IC50 (IFN gamma release, PBMCs)
1 | COc1ccc(C(=O)NCCN2CCOCC2)cc1Nc1nccc(Oc2ccc(NC(=O)Nc3cc(C(C)C)nn3-c3ccc(C)cc3)c3ccccc23)n1 [Example 30, 3-((4-((4-(3-(3-isopropyl-1-(p-tolyl)-1H-pyrazol-5-yl)ureido)naphthalen-1-yl)oxy)pyrimidin-2-yl)amino)-4-methoxy-N-(2-morpholinoethyl)benzamide] | > 13200 nM | 103 nM | 9 nM | 2.1 nM | 1 nM | – | – | – | −ve (−ve and +ve indicate that the value is below and above respectively, the no significant effect threshold, defined as 30% inhibition at 1 μg/mL at the time point indicated) | −ve (−ve and +ve indicate that the value is below and above respectively, the no significant effect threshold, defined as 30% inhibition at 1 μg/mL at the time point indicated) | 0.43 nM | 117 nM | – | – | – | –
2 | COc1ccc(-n2nc(C(C)C)cc2NC(=O)Nc2ccc(Oc3ccnc(Nc4cc(OC)cc(C(=O)NCCO)c4)n3)c3ccccc23)cc1 [Example 65, N-(2-hydroxyethyl)-3-((4-((4-(3-(3-isopropyl-1-(4-methoxyphenyl)-1H-pyrazol-5-yl)ureido)naphthalen-1-yl)oxy)pyrimidin-2-yl)amino)-5-methoxybenzamide] | > 14200 nM | 61 nM | 0.6 nM | 1.7 nM | 8 nM | – | – | – | −ve (−ve and +ve indicate that the value is below and above respectively, the no significant effect threshold, defined as 30% inhibition at 1 μg/mL at the time point indicated) | −ve (−ve and +ve indicate that the value is below and above respectively, the no significant effect threshold, defined as 30% inhibition at 1 μg/mL at the time point indicated) | – | 8.3 nM | – | 36.7% | – | –
3 | C#Cc1cc(Nc2nccc(Oc3ccc(NC(=O)Nc4cc(C(C)(C)C#N)nn4-c4ccc(C)cc4)c4ccccc34)n2)cc(C(=O)NCCN2CCOCC2)c1 [Example 78, 3-((4-((4-(3-(3-(2-Cyanopropan-2-yl)-1-(p-tolyl)-1H-pyrazol-5-yl)ureido)-naphthalen-1-yl)oxy)pyrimidin-2-yl)amino)-5-ethynyl-N-(2-morpholinoethyl)benzamide] | – | – | – | – | – | 23 nM | 2810 nM | 8 nM | – | – | – | – | 27.3 nM | 2.1% | 0.9 nM | 2.4 nM
4 | Cc1ccc(-n2nc(C(C)(C)C)cc2NC(=O)Nc2ccc(Oc3ccnc(Nc4cccc(C(N)=O)c4)n3)c3ccccc23)cc1 [Example 2, 3-((4-((4-(3-(3-(tert-Butyl)-1-(p-tolyl)-1H-pyrazol-5-yl)ureido)naphthalen-1-yl)oxy)pyrimidin-2-yl)amino)benzamide] | 1260 nM | 250 nM | 4.5 nM | 0.8 nM | 5 nM | – | – | – | −ve (−ve and +ve indicate that the value is below and above respectively, the no significant effect threshold, defined as 30% inhibition at 1 μg/mL at the time point indicated) | −ve (−ve and +ve indicate that the value is below and above respectively, the no significant effect threshold, defined as 30% inhibition at 1 μg/mL at the time point indicated) | – | 1 nM | – | 46.5% | – | –

Continued, in another order:

Row | IC50 (GSK3α [1]) | IC50 (Syk; Table 4a1) | IC50 [2] | EC50 [3] | IC50 (cSrc; Table 4a1) | IC50 (Syk; [6]) | IC50 (GSK3α [5]) | IC50 (cSrc; [6]) | SMILES | Cell viability at time point in d-U937 cells, 4 h (d-U937 cells) | Cell viability at time point in d-U937 cells, 24 h (d-U937 cells) | IC50 (HRV16 in MRC5 cells) | IC50 [4] | IC50 (IL-2 release, PBMCs) | inhibition at 5 µg/mL (PBMC cells) | IC50 (IL-8 release, PBMCs) | IC50 (IFN gamma release, PBMCs)
5 | – | – | – | – | – | 92 nM | 7950 nM | 33 nM | C#Cc1cc(Nc2nccc(Oc3ccc(NC(=O)Nc4cc(C(C)(C)C)nn4-c4ccc(OC)cc4)c4ccccc34)n2)cc(C(=O)N[C@@H](C)COC)c1 [Example 85, (S)-3-((4-((4-(3-(3-(tert-Butyl)-1-(4-methoxyphenyl)-1H-pyrazol-5-yl)ureido)-naphthalen-1-yl)oxy)pyrimidin-2-yl)amino)-5-ethynyl-N-(1-methoxypropan-2-yl)-benzamide] | – | – | – | – | 27.3 nM | 6.6% | 2.8 nM | 3.1 nM
6 | – | – | – | – | – | 33 nM | ≥ 13800 nM | 15 nM | C#Cc1cc(Nc2nccc(Oc3ccc(NC(=O)Nc4cc(C(C)(C)C)nn4-c4ccc(OC)cc4)c4ccccc34)n2)cc(C(=O)NCCOC)c1 [Example 84, 3-((4-((4-(3-(3-(tert-Butyl)-1-(4-methoxyphenyl)-1H-pyrazol-5-yl)ureido)-naphthalen-1-yl)oxy)pyrimidin-2-yl)amino)-5-ethynyl-N-(2-methoxyethyl)benzamide] | – | – | – | – | 16 nM | 0.5% | 1.6 nM | 2.2 nM
7 | – | – | – | – | – | – | 12200 nM | – | C#Cc1cc(Nc2nccc(Oc3ccc(NC(=O)Nc4cc(C(C)(C)C)nn4-c4ccc(C)cc4)c4ccccc34)n2)cc(C(=O)NC(C)(C)CN2CCOCC2)c1 [Example 82, 3-((4-((4-(3-(3-(tert-Butyl)-1-(p-tolyl)-1H-pyrazol-5-yl)ureido)naphthalen-1-yl)oxy)pyrimidin-2-yl)amino)-5-ethynyl-N-(2-methyl-1-morpholinopropan-2-yl)-benzamide] | – | – | – | – | 37.4 nM | -6.3% | 7.1 nM | 3.9 nM

From patent US20140057915A1, “KINASE INHIBITORS” (TOPIVERT PHARMA LIMITED, priority 2012, published 2014)
